≈ marks a conversion by molar mass, not a printed value. Like-named read-outs stand apart in the source and are kept apart here.
Columns and labels:
Candida glabrata = assay: Minimal Inhibitory Concentration (MIC) assay, broth microdilution per CLSI; format: cell-based; settings: Nakaseomyces glabratus, read-out: Minimum Inhibitory Concentrations against Yeast Isolates, Candida glabrata;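 further: two read times 24 hr and 48 hr of incubation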
Method in brief: (§1)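 CLSI broth microdilution in RPMI with 0.165 M MOPS, pH 7.0, inoculum from 0.5 McFarland suspension diluted 1:100; compounds in DMSO. Incubation at 35°C for about 24-48 hr; MIC is lowest concentration without visible growth, fluconazole at prominent decrease in growth.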

Candida parapsilosis = assay: as above; format: cell-based; settings: Lodderomyces parapsilosis, read-out: Minimum Inhibitory Concentrations against Yeast Isolates, Candida parapsilosis;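 further: two read times 24 hr and 48 hr of incubation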
Method in brief: as §1

Candida albicans = assay: as above; format: cell-based; settings: Candida albicans, read-out: Minimum Inhibitory Concentrations against Yeast Isolates, Candida albicans;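 further: two read times 24 hr and 48 hr of incubation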
Method in brief: as §1

C. glabrata = assay: Checkerboard FIC assay in combination with fluconazole (MIC alone and in combination, FICI); format: cell-based, Candida glabrata; settings: for FICI of combination resulting in fluconazole MIC of: 2 ug/mL / FICI of combination resulting in fluconazole MIC of: 4 ug/mL / FICI of combination resulting in fluconazole MIC of: 8 ug/mL: FICI calculated using a fluconazole MIC of 16 μg/mL; for FICI of combination resulting in fluconazole MIC of: 2 ug/mL (value in parenthesis) / FICI of combination resulting in fluconazole MIC of: 4 ug/mL (value in parenthesis) / FICI of combination resulting in fluconazole MIC of: 8 ug/mL (value in parenthesis): FICI using a fluconazole MIC of 128 μg/mL; for MIC: Nakaseomyces glabratus; for Concentration of Methylgene compound to synergize fluconazole MIC to 2 ug/mL / Concentration of Methylgene compound to synergize fluconazole MIC to 4 ug/mL / Concentration of Methylgene compound to synergize fluconazole MIC to 8 ug/mL: in combination with fluconazole; for Concentration of Methylgene compound to synergize fluconazole MIC to 2 ug/mL: fluconazole MIC lowered to 2 ug/mL; for Concentration of Methylgene compound to synergize fluconazole MIC to 4 ug/mL: fluconazole MIC lowered to 4 ug/mL; for Concentration of Methylgene compound to synergize fluconazole MIC to 8 ug/mL: fluconazole MIC lowered to 8 ug/mL; for Multiple of compound MIC to synergize fluconazole MIC to 2 ug/mL / Multiple of compound MIC to synergize fluconazole MIC to 4 ug/mL / Multiple of compound MIC to synergize fluconazole MIC to 8 ug/mL: concentration in combination as multiple of the compound's MIC alone; for Multiple of compound MIC to synergize fluconazole MIC to 2 ug/mL: fluconazole MIC 2 ug/mL; for Multiple of compound MIC to synergize fluconazole MIC to 4 ug/mL: fluconazole MIC 4 ug/mL; for Multiple of compound MIC to synergize fluconazole MIC to 8 ug/mL: fluconazole MIC 8 ug/mL
Method in brief: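 C. glabrata was tested by CLSI broth microdilution checkerboard, crossing 2-fold dilutions of compound with 2-fold dilutions of fluconazole. The medium was RPMI with 0.165 M MOPS at pH 7.0, inoculated from a 0.5 McFarland suspension diluted 1:100, then incubated about 48 h at 35 °C. Single-agent MICs gave the FIC and FICI values.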

[1] = 24 hr reading (first value of cell 24 hr/48 hr)
[2] = 48 hr reading (second value of cell 24 hr/48 hr)
[3] = MIC of the example compound alone against C. glabrata in the checkerboard assay, approximately 48 hr, read-out: Methylgene MIC
[4] = test compound alone, C. glabrata, approx. 48 hr at 35° C., read-out: Compound MIC

Structure (SMILES)	MIC (Candida glabrata; [1])	MIC (Candida glabrata; [2])	MIC (Candida parapsilosis; [1])	MIC (Candida parapsilosis; [2])	MIC (Candida albicans; [1])	MIC (Candida albicans; [2])	FICI of combination resulting in fluconazole MIC of: 2 ug/mL (C. glabrata; C. glabrata)	FICI of combination resulting in fluconazole MIC of: 4 ug/mL (C. glabrata; C. glabrata)	FICI of combination resulting in fluconazole MIC of: 8 ug/mL (C. glabrata; C. glabrata)	FICI of combination resulting in fluconazole MIC of: 2 ug/mL (value in parenthesis) (C. glabrata; C. glabrata)	FICI of combination resulting in fluconazole MIC of: 4 ug/mL (value in parenthesis) (C. glabrata; C. glabrata)	FICI of combination resulting in fluconazole MIC of: 8 ug/mL (value in parenthesis) (C. glabrata; C. glabrata)	MIC (C. glabrata; [3])	MIC (C. glabrata; [4])	Concentration of Methylgene compound to synergize fluconazole MIC to 2 ug/mL (C. glabrata; C. glabrata)	Concentration of Methylgene compound to synergize fluconazole MIC to 4 ug/mL (C. glabrata; C. glabrata)	Concentration of Methylgene compound to synergize fluconazole MIC to 8 ug/mL (C. glabrata; C. glabrata)	Multiple of compound MIC to synergize fluconazole MIC to 2 ug/mL (C. glabrata)	Multiple of compound MIC to synergize fluconazole MIC to 4 ug/mL (C. glabrata)	Multiple of compound MIC to synergize fluconazole MIC to 8 ug/mL (C. glabrata)
O=C(Cc1ccc(CCCCc2ccc(O)c(O)c2)cc1)NO [Example 19, 2-(4-(4-(3,4-dihydroxyphenyl)butyl)phenyl)-N-hydroxyacetamide]	1 µg/mL (≈ 3.17 µM)	2 µg/mL (≈ 6.34 µM)	32 µg/mL (≈ 101 µM)	32 µg/mL (≈ 101 µM)	16 µg/mL (≈ 50.7 µM)	32 µg/mL (≈ 101 µM)	0.313	0.375	0.500	0.266	0.281	0.313	2 µg/mL	2 µg/mL	0.5 µg/mL	0.5 µg/mL	0.5 µg/mL	(¼x)	(¼x)	(¼x)
CN(C)CCSCC(=O)Nc1ccc(CCCCc2ccc(CC(=O)NO)cc2)cc1 [Example 38, 2-(2-(dimethylamino)ethylthio)-N-(4-(4-(4-(2-(hydroxyamino)-2-oxoethyl)phenyl)butyl)phenyl)acetamide]	16 µg/mL (≈ 36.1 µM)	16 µg/mL (≈ 36.1 µM)	> 64 µg/mL	> 64 µg/mL	> 64 µg/mL	> 64 µg/mL	0.563	0.375	0.375	0.516	0.281	0.188	16 µg/mL	16 µg/mL	8 µg/mL	4 µg/mL	2 µg/mL	(½x)	(¼x)	(⅛x)
CN1CCN(CCS(=O)(=O)Nc2cccc(CCCCc3ccc(CC(=O)NO)cc3)c2)CC1 [Example 54, N-hydroxy-2-(4-(4-(3-(2-(4-methylpiperazin-1-yl)ethylsulfonamido)phenyl)butyl)phenyl)acetamide]	16 µg/mL (≈ 32.7 µM)	> 64 µg/mL	> 64 µg/mL	> 64 µg/mL	> 64 µg/mL	> 64 µg/mL	0.313	0.250	0.313	0.266	0.156	0.125	> 16 µg/mL	> 16 µg/mL	8 µg/mL	4 µg/mL	2 µg/mL	–	–	–

The remaining lines, values ahead:

MIC (Candida glabrata; [1])	MIC (Candida glabrata; [2])	MIC (Candida parapsilosis; [1])	MIC (Candida parapsilosis; [2])	MIC (Candida albicans; [1])	MIC (Candida albicans; [2])	FICI of combination resulting in fluconazole MIC of: 2 ug/mL (C. glabrata; C. glabrata)	FICI of combination resulting in fluconazole MIC of: 4 ug/mL (C. glabrata; C. glabrata)	FICI of combination resulting in fluconazole MIC of: 8 ug/mL (C. glabrata; C. glabrata)	FICI of combination resulting in fluconazole MIC of: 2 ug/mL (value in parenthesis) (C. glabrata; C. glabrata)	FICI of combination resulting in fluconazole MIC of: 4 ug/mL (value in parenthesis) (C. glabrata; C. glabrata)	FICI of combination resulting in fluconazole MIC of: 8 ug/mL (value in parenthesis) (C. glabrata; C. glabrata)	MIC (C. glabrata; [3])	MIC (C. glabrata; [4])	Concentration of Methylgene compound to synergize fluconazole MIC to 2 ug/mL (C. glabrata; C. glabrata)	Concentration of Methylgene compound to synergize fluconazole MIC to 4 ug/mL (C. glabrata; C. glabrata)	Concentration of Methylgene compound to synergize fluconazole MIC to 8 ug/mL (C. glabrata; C. glabrata)	Multiple of compound MIC to synergize fluconazole MIC to 2 ug/mL (C. glabrata)	Multiple of compound MIC to synergize fluconazole MIC to 4 ug/mL (C. glabrata)	Multiple of compound MIC to synergize fluconazole MIC to 8 ug/mL (C. glabrata)	Structure (SMILES)
64 µg/mL (≈ 180 µM)	> 64 µg/mL	> 64 µg/mL	> 64 µg/mL	> 64 µg/mL	> 64 µg/mL	0.563	0.625	0.500	0.516	0.531	0.313	> 16 µg/mL	> 16 µg/mL	16 µg/mL	16 µg/mL	8 µg/mL	–	–	–	O=C(Cc1ccc(CCCCc2ccccc2NC(=O)CO)cc1)NO [Example 46, N-hydroxy-2-(4-(4-(2-(2-hydroxyacetamido)phe-nyl)butyl)phenyl)acetamide]
8 µg/mL (≈ 25.5 µM)	64 µg/mL (≈ 204 µM)	> 64 µg/mL	> 64 µg/mL	> 64 µg/mL	> 64 µg/mL	0.188	0.250	0.375	0.141	0.156	0.188	> 16 µg/mL	> 16 µg/mL	4 µg/mL	4 µg/mL	4 µg/mL	–	–	–	CC(C(=O)NO)c1ccc(CCC(O)Cc2ccccc2)cc1 (centres unmarked) [Example 58, N-hydroxy-2-(4-(3-hydroxy-4-phenylbutyl)phenyl)propanamide]
16 µg/mL (≈ 53.4 µM)	> 64 µg/mL	> 64 µg/mL	> 64 µg/mL	> 64 µg/mL	> 64 µg/mL	0.563	0.625	0.500	0.516	0.531	0.313	> 16 µg/mL	> 16 µg/mL	16 µg/mL	16 µg/mL	8 µg/mL	–	–	–	O=C(Cc1ccc(CCC(O)Cc2ccccc2)cc1)NO (centres unmarked) [Example 57, N-hydroxy-2-(4-(3-hydroxy-4-phenylbutyl)phenyl)acetamide]
0.25 µg/mL (≈ 0.841 µM)	0.5 µg/mL (≈ 1.68 µM)	0.12 µg/mL (≈ 0.403 µM)	0.25 µg/mL (≈ 0.841 µM)	0.5 µg/mL (≈ 1.68 µM)	0.5 µg/mL (≈ 1.68 µM)	0.563	0.365	0.490	0.516	0.271	0.303	0.5 µg/mL	0.5 µg/mL	0.25 µg/mL	0.12 µg/mL	0.12 µg/mL	(½x)	(¼x)	(¼x)	CC(CCCc1ccc(CC(=O)NO)cc1)c1ccccc1 (centres unmarked) [Example 30, N-hydroxy-2-(4-(4-phenylpentyl)phenyl)acetamide]

— patent US20140081017A1, “Histone Deacetylase Inhibitors for Enhancing Activity of Antifungal Agents” (METHYLGENE INC., priority 2012, published 2014)
